{"source": "paper PMC8348110", "about": "“A Novel Peptide Derived from the Transmembrane Domain of Romo1 Is a Promising Candidate for Sepsis Treatment and Multidrug-Resistant Bacteria” (International Journal of Molecular Sciences, 2021)", "key": {"[1]": {"test_system": "Carbapenem-resistant A. baumannii, clinical isolate", "assay_type": "cell-based, Acinetobacter baumannii", "details": "1 h", "from_the_text": "Acinetobacter baumannii (ATCC 19606), B. subtilis (ATCC 6633), E. aerogenes (ATCC 13048), E. coli (ATCC 25922), E. faecalis (ATCC 19433), E. faecium (ATCC 19434), K. pneumoniae (ATCC 13883), P. aeruginosa (ATCC 27853), S. aureus (ATCC 29213), S. sindenensis (ATCC 23963), and MRSA (ATCC 33591) were purchased from the American Type Culture Collection (ATCC; Gaithersburg, MD, USA). Streptococcus pneumoniae (NCCP 14585), vancomycin-resistant E. faecium (NCCP 11522), and vancomycin-resistant S. aureus (NCCP 15872) were purchased from the National Culture Collection for Pathogens (NCCP; Cheongju, Korea). The isolation and use of carbapenem-resistant bacterial strains from a patient were approved (2015AN0129) by the Institutional Review Board (IRB) of Korea University Hospital. […]\nThe minimum bactericidal concentration (MBC) was determined as previously described with minor modifications. […] The value of MBC was determined at the lowest concentrations at which no colonies were identified.\n(§1) We used the CFU counting method to measure antibacterial activity, with all bacteria cultured to the mid-log phase in an appropriate broth medium. Bacterial CFUs were counted after overnight culture at 37 °C on TS or LB agar plates. The MBC value and antibacterial activity in blood components were determined as previously described. […]"}, "[2]": {"test_system": "human PBMCs", "test": "White blood cell toxicity assay (LIVE/DEAD stain, flow cytometry)", "assay_type": "cell-based", "details": "freshly isolated PBMCs, 0 to 256 μg/mL for 30 min", "experimental": "(§2) For the hemolytic assay, mouse and human whole blood was diluted with PBS (pH 7.4) and centrifuged for 10 min at 500× g. After removing the supernatant and rinsing the pellet three times with PBS, we resuspended the erythrocytes in PBS at 2% volume. The blood solution was added to the solution of peptides with two-fold serial dilution on a 96-well plate. After incubation for an hour at 37 °C, the plate was centrifuged at 2500× g for 10 min, and the absorbance of the supernatant was measured at 550 nm. The PBS-treated sample was the negative control, and the 0.1% Triton X-100–treated sample was the positive control. To measure white blood cell toxicity, mouse and human PBMCs were freshly isolated as previously described, and 70% ethanol (positive control) or AMPR-22 was administered using two-fold diluted concentrations (0 to 256 μg/mL) for 30 min. To measure cell death, a LIVE/DEAD® fixable green dead cell stain kit (Thermo Fisher Scientific, Waltham, MS, USA) was used following the manufacturer′s instructions, and flow cytometry was performed using a FACS Canto II (BD Biosciences, CA, USA). The toxicity of AMPR-22 was compared with negative (PBS-treated) and positive controls, and the data were analyzed using FlowJo software (Tree Star, OR, USA)."}, "[3]": {"test_system": "mouse PBMCs", "test": "White blood cell toxicity assay (LIVE/DEAD stain, flow cytometry)", "assay_type": "cell-based", "details": "freshly isolated PBMCs, 0 to 256 μg/mL for 30 min", "experimental": "as §2"}, "[4]": {"test_system": "P. aeruginosa or S. aureus", "assay_type": "in vitro ADME", "experimental": "Figure 4 The antibacterial activity of AMPR-22 in various physiological conditions. (A,B) Effects of AMPR-22 activity in mouse plasma and human serum. AMPR-22 was incubated with blood components for the indicated times (0, 15, 30, 60, 90, 120, 150, and 180 min) and then with P. aeruginosa or S. aureus for an hour. (C,D) Effects of AMPR-22 activity in low-density lipoprotein (LDL), high-density lipoprotein (HDL), and bovine serum albumin. AMPR-22 was incubated with blood components for the indicated times (0, 30, 60, 120, and 180 min) and then with P. aeruginosa or S. aureus for an hour. (E) Effects of AMPR-22 activity in whole blood. AMPR-22 was incubated with mouse and human whole blood for the indicated times (0, 30, 60, 90, 120, and 180 min) and then with P. aeruginosa for an hour. (F,G) The antibacterial activity of AMPR-22 in vivo. AMPR-22 was intravenously administered into P. aeruginosa-infected mice, and blood was collected from the tail veins of the mice at the indicated times (0, 15, 30, 60, and 90 min). (F) The relative CFU in blood samples was calculated using the following formula: CFU at indicated time ÷ CFU at 0 min × 100 (%). (G) The relative CFU of blood samples obtained from F was re-graphed using the following formula: CFU of AMPR-22-treated mouse group ÷ CFU of control (PBS) group × 100 (%). (H) The functional half-life measurement of AMPR-22. AMPR-22 was intravenously administered into mice, and blood was collected at the indicated times (0, 5, 30, 60, 90, 120, 150, and 180 min). The blood was collected by cardiac puncture, and the plasma was isolated by centrifugation. Then, the plasma was incubated with P. aeruginosa for an hour. The antibacterial activity was measured using a colony-forming unit assay. […]\nas §1"}}, "note": "Residues, ends and D or L forms follow the SMILES beside them."}
{"compound": "CC[C@H](C)[C@H](NC(=O)CNC(=O)CNC(=O)[C@@H](NC(=O)[C@H](C)NC(=O)[C@H](CCSC)NC(=O)[C@H](Cc1ccccc1)NC(=O)[C@@H](NC(=O)CNC(=O)[C@H](Cc1ccccc1)NC(=O)[C@H](CCCCN)NC(=O)CNC(=O)CNC(=O)[C@H](CCCCN)NC(=O)[C@H](CCCCN)NC(=O)[C@H](CCSC)NC(=O)[C@H](CCSC)NC(=O)[C@H](CCCCN)NC(=O)[C@@H](N)CCCCN)[C@@H](C)O)[C@@H](C)CC)C(=O)N[C@@H](CCCNC(=N)N)C(=O)O", "note": "[AMPR-22] (H-KKMMKKGGKFGTFMAIGGIR-OH)", "values": [{"measurement": "MBC Value, Carbapenem-resistant A. baumannii", "setting": "[1]", "result": 1, "unit": "µg/mL"}, {"measurement": "Cytotoxic activity against human leukocytes", "setting": "[2]", "result": "negligible cytotoxic activity"}, {"measurement": "Cytotoxic activity against mouse leukocytes", "setting": "[3]", "result": "negligible cytotoxic activity"}, {"measurement": "Antibacterial activity in presence of human LDL, HDL or bovine serum albumin", "setting": "[4]", "result": "not affected"}, {"measurement": "Functional half-life in vitro", "setting": "[4]", "result": "around 90 min"}, {"measurement": "Half-life of antibacterial activity in mouse plasma and human serum", "setting": "[4]", "result": "longer than that of AMPR-11"}]}
